Assay results reported in patent US20060210504A1, “Compositions and methods for inhibiting eccrine perspiration in humans” (priority 2001, published 2006).

Columns and labels:
[1] = test system: sweat production in the axilla (eccrine sweat glands); experiment: Antiperspirant efficacy evaluation, standard hot room protocol (FDA OTC Antiperspirant Tentative Final Monograph); assay type: in vivo, human (healthy female volunteers); conditions: for mean reduction in sweat production: axilla, once daily for five days, about one hour after fifth treatment
Description: (§1) The antiperspirant efficacy and safety of glycopyrrolate, a quaternary ammonium salt, was tested pursuant to protocol prescribed by the Food and Drug Administration, 21CFR Part 10.90 The OTC Antiperspirant Tentative Final Monograph. So as to separate vehicle from drug effects, glycopyrrolate was presented as a simple solution in varying concentrations of 0.3%, 1% and 3% weight per volume. In each treatment group as listed below, the glycopyrrolate solution and a placebo of distilled water were applied to the axilla of healthy female volunteers. In particular, the placebo was applied to one armpit while the test solution was applied to the other armpit of a given volunteer. The designation of armpits (namely, right or left) for the application of placebo vs. solution was randomized according to the FDA protocol. In the placebo Group B, distilled water was applied to both axilla of each volunteer. Treatments were applied once daily for five consecutive days.
The groups comprised the following: • Group A—0.3% glycopyrrolate versus distilled water; • Group B—Placebo (distilled water applied to both axilla); • Group C—1% glycopyrrolate versus distilled water; • Group D—3% glycopyrrolate versus distilled water;
(§2) The clinical study was conducted among 37 healthy female volunteers. The testing further conformed to ICH guidelines and the requirements of the 1964 Declaration of Helsinki and its subsequent amendments. The study was a pilot, single-center, randomized, controlled, double-blind assessment of the safety, tolerability and antiperspirant efficacy of glycopyrrolate when applied to the axilla of healthy female volunteers.
The study was conducted in two cohorts of volunteers. The first cohort comprised fourteen (14) subjects, with […] subjects assigned to placebo Group B and ten (10) subjects assigned to 0.3% Group A.
Nine (9) days following the completion of the first cohort, a second cohort of twenty-three (23) subjects were tested, with three (3) subjects assigned to placebo Group B, ten (10) subjects assigned to 1% Group C, and ten (10) subjects assigned to 3% Group D.
(§3) The antiperspirant efficacy evaluation was performed approximately one hour after the fifth treatment using a standard hot room protocol. Safety and tolerance were measured by assessment of blood chemistry and hematology, electrocardiograms, daily monitoring of heart rate, blood pressure and body temperature, assessment of visual effects and dermal irritancy, and subjective assessment of tolerance.

[2] = test system: healthy female volunteers; experiment: Safety and tolerance assessment on topical application to the axilla; assay type: in vivo, human
Description: as §1, §2, §3

[3] = 1% w/v simple solution (Group C) vs distilled water
[4] = 3% w/v simple solution (Group D) vs distilled water
[5] = 0.3%, 1% and 3% w/v topical to axilla, once daily for five days

C[N+]1(C)CCC(OC(=O)C(O)(c2ccccc2)C2CCCC2)C1 (stereo not drawn) [glycopyrrolate]
antiperspirant efficacy in words ([1]; 0.3% concentration): essentially ineffective | inhibition enjoyed by two subjects ([1]; 0.3% concentration, two subjects): 0.50 % inhibition | statistical significance of reduction in sweat production ([1]; 0.3% w/v simple solution (Group A) vs distilled water): no statistically significant reduction in sweat production | binomial criteria of 95% confidence with at least 50% of the population showing at least 20% reduction in sweating ([1]; 1% group): met the binomial criteria | range of effect (inhibition of sweating across subjects) ([1]; 1% treatment group): −16-to 54 % inhibition | statistical significance of reduction in sweat production [1, 3]: significant sweat reduction | mean reduction in sweat production [1, 3]: 32.85%±9.81 | binomial criteria of 95% confidence with at least 50% of the population showing at least 20% reduction in sweating ([1]; 3% group): met the binomial criteria | range of effect (inhibition of sweating across subjects) ([1]; 3% treatment group): −13 to 90 % inhibition | statistical significance of reduction in sweat production [1, 4]: significant sweat reduction | mean reduction in sweat production [1, 4]: 54.72%±20.23 | dose dependence of antiperspirant effect ([1]; simple solution, 0.3%, 1% and 3%, highest efficacy at 3%): dose-dependent antiperspirant effect | pupillary dilation or other systemic symptoms of anticholinergic agents [2, 5]: no signs of pupillary dilation or other systemic symptoms | serious adverse events [2, 5]: No serious adverse events | adverse events, clinical significance ([2]; reviewed by principal investigator and attendant cardiologist): clinically non-significant
